What was measured:
B16F10 melanoma cell [1] = test: Anticancer effect of anti-4-1BB antibody combined with other chemotherapeutic anti-cancer agents; tumor size and survival; conditions: for growth rate of cancer tissue / survival rate of mice / anticancer effect / activity: given simultaneously with B16F10, FIG. 3; for growth rate of cancer tissue: chemotherapeutic once (Cis 50 or 200 μg, 5-FU 800 or 10,000 μg, irinotecan 2 mg, paclitaxel 200 or 500 μg i.p.; Doxo 200 or 400 μg i.v.), antibody 100 μg, vs rat IgG control; for survival rate of mice / anticancer effect / activity: same doses as E16
Method: 4×10^5 cells of B16F10 melanoma cell were injected to the back of C57BL/6 mice to occur tumor in a similar method in
At the same time, 100 μg of anti-4-1BB monoclonal antibody and/or 50 or 200 μg of cisplatin, 800 or 10,000 μg of 5-fluorouracil (5-FU), 2 mg of irinotecan and 200 or 500 μg of paclitaxel (Taxel) were intraperitoneally injected into the mice once respectively and the anti-4-1BB monoclonal antibody was further injected into the peritoneal cavity at 6 times per every 5 days. 100 μg of anti-4-1BB monoclonal antibody and/or 200 or 400 μg of Doxorubicin (Doxo) were injected into the vein and an anti-4-1BB monoclonal antibody was injected into the peritoneal cavity at 6 times per every 5 days. The size of tumor and the survival rates of the mice were analyzed during the test period (See FIG. 3).

B16F10 melanoma cell [2] = test system: B16F10 melanoma cell
Method: (§1) C57BL/6 male mice (Harlan Laboratories, Indianapolis, Ind.) were used as an experiment animal. The mice had been bred allowing freely accessible to water and feed and maintaining the temperature to 21±2° C. in 12 hours of light/dark cycle before use in test. B16F10(ATCC CRL-6475, USA), a melanoma cell line of mouse, was cultured in DMEM medium (Dulbeco's modified eagle's medium, GIBCO BRL, USA) containing 10% FBS (Fetal Bovine Serum; Gibco BRL, NY), 2 mM L-glutamine, 100 U/l penicillin (Invitrogen, USA) and 100 μg/ml streptomycin (Invitrogen, USA).
(§2) 4×10^5 cells of B16F10 melanoma cell were subcutaneously injected to the back of mice to occur tumor. At the same time, 100 μg of anti-4-1BB monoclonal antibody and 3 mg of CTX were intraperitoneally injected into the mice and the antibody was further injected thereto at the interval of five days. […] The size and survival rate of the mice were periodically determined.
At the same time, 100 μg of anti-4-1BB monoclonal antibody and 3 mg of CTX were intraperitoneally injected to the mice once and anti-4-1BB monoclonal antibody was injected into the peritoneal cavity at 6 times per every 5 days. The tumor size and the survival rates of mice were analyzed during the test period (See FIG. 1)

B16F10 melanoma cell [3] = test system: B16F10 melanoma cell; remark: listed apart in the source
Method: as §1, §2
3 mg of CTX were injected into the peritoneal cavity of the mice at 5th days and 10th days after injecting cancer cells, anti 4-1BB antibody was injected into the peritoneal cavity at 6 times per every 5 days from 5th days or 10th days after injecting cancer cells.

[4] = test system: draining lymph node cell (CD4 and CD8 T cells); test: Lymphocyte repopulation: cell number, CD4 and CD8 T cells in draining lymph node of tumor-bearing mice; assay type: in vivo, C57BL/6 mice
Method: The ratio of immune cell in each sample was analyzed with FACScan (BD Bioscience, USA), and the number of infiltrated CD4+ CD8+ T cells in tumor tissue was calculated by following Math FIG. 1
Accordingly, it was anticipated that the sustainable treatment effect of cancer by the combined treatment with CTX and anti-4-1BB antibody would be involved in the repopulation of T cell showing anticancer activity.

IFN-γ = IFN-γ expression of CD4 and CD8 T cells of draining lymph node (intracellular staining, FACScan); conditions: 17th day after treating, FIG. 5a
Method: At 1st, 2nd, 4th, 8th, 12th, 16th, 20th, 24th days after the injection, the closest draining lymph node (inguinal lymph node) to tumor tissue in each group was isolated from the mice to determine the expression of IFN-γ (Kim Y H et al., Cell. Immunol., 238(2), pp 76˜86, 2005). To stain the IFN-γ cytokine in cell, lymph-node cell suspension was prepared from each group and the separated cells were cultured in culture medium containing Brefeldin A (BD Bioscience, USA) for 6 hours after treating with 50 ng/ml of PMA and 500 mg/ml of Ionomycin (Sigma, USA). […] The cells was then stained with anti-IFN-γ-PE (eBioscience, USA) using by Cytofix/cytoperm (BD Pharmingen, USA) with the manual of manufacturing company and analyzed with FACScan (BD Bioscience, USA).
3 mg of CTX and/or 100 μg of anti-4-1BB antibody were treated to the tumor-injected mice once and the cell was separated from the experimental group at 17th day when the cell started to launch the repopulation after treating with CTX and at 22nd day when the repopulation of the cell in lymph node was enough and the expression of IFN-γ was analyzed with FACScan (BD Bioscience, USA) with the method disclosed in Example 3.

For `O=c1[nH]cc(F)c(=O)[nH]1` [5-FU, 5-fluorouracil], which “growth rate of cancer tissue” value (B16F10 melanoma cell [1]) is on record?
The value was “decreased in a dose dependent manner”.

And the “survival rate of mice” value (B16F10 melanoma cell [1])?
The value was “increased”.

Which results are given for `O=P1(N(CCCl)CCCl)NCCCO1` (stereo not drawn) [CTX, cyclophosphamide]?
growing rate of tumor / growth of cancer (B16F10 melanoma cell [2]; treatment at the same time as 4×10^5 B16F10 cells, 100 μg antibody i.p. 6 times per every 5 days, 3 mg CTX i.p. once, FIG. 1): potent inhibiting effect on the growth of cancer; day after injecting cancer cells until which tumor size was not increased (B16F10 melanoma cell [2]; treatment at the same time as B16F10 injection): 30 days; survival of mice extended for (B16F10 melanoma cell [2]; treatment at the same time as B16F10 injection, versus mice injected with only B16F10 (all died around 30th day)): 20 days; anti-cancer activity (B16F10 melanoma cell [3]; treatment at 5th day after injecting cancer cell): did not show any effect on the anti-cancer activity; growth of tumor (B16F10 melanoma cell [3]; treatment from 10th day after injecting cancer cells, FIG. 2c): did not show any change; survival of mice (B16F10 melanoma cell [3]; treatment from 10th day after injecting cancer cells, FIG. 2d): did not show any change; number of cell in lymph node ([4]; B16F10-bearing mice, FIG. 4a): temporarily been decreased; time after injecting cancer cell at which number of cell in lymph node increased ([4]; B16F10-bearing mice, FIG. 4a): around 16 days; level of lymph node cell number comparing with mice treated with rat IgG or anti-4-1BB ([4]; after recovery of the cell number): less than ½ to ⅕; day after which number of CD4 and CD8 T cell was recovered to normal range ([4]; draining lymph node): > 14 days; number of CD4 and CD8 T cell ([4]; draining lymph node, FIG. 4b, 4c): decreased; IFN-γ expression of T cell (IFN-γ): 2 to 3%

`COc1cccc2c1C(=O)c1c(O)c3c(c(O)c1C2=O)C[C@@](O)(C(=O)CO)C[C@@H]3O[C@H]1C[C@H](N)[C@H](O)[C@H](C)O1` [Doxorubicin] was tested. Which “growth rate of cancer tissue” value (B16F10 melanoma cell [1]) did it give?
The value was “had been decreased”.

What about the “anticancer effect / activity” value (B16F10 melanoma cell [1]) of the same compound?
Its value is “strong anticancer effect in a dose dependent manner”.

What about the “survival rate of mice” value (B16F10 melanoma cell [1]) of the same compound?
The value was “remarkably increased”.

`CCc1c2c(nc3ccc(OC(=O)N4CCC(N5CCCCC5)CC4)cc13)-c1cc3c(c(=O)n1C2)COC(=O)[C@]3(O)CC` [Irinotecan, irinotecan] was tested. Which “time within which most of mice died” value (B16F10 melanoma cell [1]; 2 mg irinotecan i.p. once) did it give?
Its value is at most 30 days.

What about the “anticancer effect / activity” value (B16F10 melanoma cell [1]) of the same compound?
The value was “strong anticancer effect in a dose dependent manner”.

For `CC(=O)O[C@H]1C(=O)[C@@]2(C)[C@H]([C@H](OC(=O)c3ccccc3)[C@]3(O)C[C@H](OC(=O)[C@H](O)[C@@H](NC(=O)c4ccccc4)c4ccccc4)C(C)=C1C3(C)C)[C@]1(OC(C)=O)CO[C@@H]1C[C@@H]2O` [Paclitaxel, paclitaxel], which “growth rate of cancer tissue” value (B16F10 melanoma cell [1]) is on record?
Its value is “slightly slowed”.

And the “anticancer effect / activity” value (B16F10 melanoma cell [1])?
Its value is “a little lower inhibiting effect of the growth of B16-F10 melanoma comparing with other anticancer agents”.

What about the “survival rate of mice” value (B16F10 melanoma cell [1]) of the same compound?
Its value is “slightly increased”.

For `N.N.[Cl][Pt][Cl]` [cisplatin], which “growth rate of cancer tissue” value (B16F10 melanoma cell [1]) is on record?
The value was “decreased in a dose dependent manner”.

What about the “survival rate of mice” value (B16F10 melanoma cell [1]) of the same compound?
Its value is “partly increased”.

— US20080008716A1, “Combined Pharmaceutical Composition Comprising an Anti-4-1BB Monoclonal Antibody and Chemotherapeutic Anti-Cancer Agent for Preventing and Treating Cancer Disease” (ULSAN INDUSTRIAL EDUCATION FOUNDATION, priority 2006, published 2008)
